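1) Cells in 96-well plates. 2) Compound, 48 h, 5 concentrations. 3) Linear interpolation between surrounding doses. 4) Unreached endpoint = highest concentration. Definition used: TGI = concentration required for complete inhibition of growth.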
Experiments:
Experiment in all cases: DTP human tumour cell line panel, 48 h
NCI-H226 lung = system: NCI-H226 lung
SK-OV-3 ovarian = system: SK-OV-3 ovarian
NCI-H522 lung = system: NCI-H522 lung
786-0 renal = system: 786-0 renal
SK-MEL-28 melanoma = system: SK-MEL-28 melanoma
HS 578T breast = system: HS 578T breast
UACC-257 melanoma = system: UACC-257 melanoma
MCF7 breast = system: MCF7 breast
HOP-62 NSCLC = system: HOP-62 NSCLC
MOLT-4 leukemia = system: MOLT-4 leukemia
BT-549 breast = system: BT-549 breast
HOP-92 NSCLC = system: HOP-92 NSCLC
T-47D breast = system: T-47D breast
U251 CNS = system: U251 CNS
UO-31 renal = system: UO-31 renal
HL-60(TB) leukemia = system: HL-60(TB) leukemia
UACC-62 melanoma = system: UACC-62 melanoma
SK-MEL-5 melanoma = system: SK-MEL-5 melanoma
A549 NSCLC = system: A549 NSCLC
NCI/ADR-RES ovarian = system: NCI/ADR-RES ovarian
HCT-116 colon = system: HCT-116 colon
K-562 leukemia = system: K-562 leukemia
NCI-H460 lung = system: NCI-H460 lung
NCI-H23 lung = system: NCI-H23 lung
RPMI-8226 leukemia = system: RPMI-8226 leukemia
ACHN renal = system: ACHN renal
SW-620 colon = system: SW-620 colon
OVCAR-3 ovarian = system: OVCAR-3 ovarian
HCC-2998 colon = system: HCC-2998 colon
SK-MEL-2 melanoma = system: SK-MEL-2 melanoma
CAKI-1 renal = system: CAKI-1 renal
PC-3 prostate = system: PC-3 prostate
TK-10 renal = system: TK-10 renal
OVCAR-4 ovarian = system: OVCAR-4 ovarian
EKVX NSCLC = system: EKVX NSCLC
HT29 colon = system: HT29 colon
OVCAR-5 ovarian = system: OVCAR-5 ovarian
M14 melanoma = system: M14 melanoma
CCRF-CEM leukemia = system: CCRF-CEM leukemia
SF-295 CNS = system: SF-295 CNS
SF-268 CNS = system: SF-268 CNS
SR leukemia = system: SR leukemia
MDA-N = system: MDA-N
OVCAR-8 ovarian = system: OVCAR-8 ovarian
MALME-3M melanoma = system: MALME-3M melanoma
RXF 393 renal = system: RXF 393 renal
LOX IMVI melanoma = system: LOX IMVI melanoma
SNB-19 CNS = system: SNB-19 CNS
KM12 colon = system: KM12 colon
IGROV1 ovarian = system: IGROV1 ovarian
DU-145 prostate = system: DU-145 prostate
SNB-75 CNS = system: SNB-75 CNS
HCT-15 colon = system: HCT-15 colon
MDA-MB-231 breast = system: MDA-MB-231 breast
COLO 205 colon = system: COLO 205 colon
SN12C renal = system: SN12C renal
A498 renal = system: A498 renal
SF-539 CNS = system: SF-539 CNS
MDA-MB-435 = system: MDA-MB-435

With `O=c1c2c3c(sc2nc(CN2CCNCC2)n1-c1ccccc1)CCCC3` the TGI (NCI-H226 lung) was > 100 µM, the TGI (SK-OV-3 ovarian) was > 100 µM and the TGI (NCI-H522 lung) was > 100 µM. For the same molecule, the TGI (786-0 renal) was > 100 µM, the TGI (SK-MEL-28 melanoma) was > 100 µM and the TGI (HS 578T breast) was > 100 µM. For the same molecule, the TGI (UACC-257 melanoma) was > 100 µM, the TGI (MCF7 breast) was > 100 µM and the TGI (HOP-62 NSCLC) was > 100 µM. For the same molecule, the TGI (MOLT-4 leukemia) was > 100 µM, the TGI (BT-549 breast) was > 100 µM and the TGI (HOP-92 NSCLC) was > 100 µM. For the same molecule, the TGI (T-47D breast) was > 100 µM, the TGI (U251 CNS) was > 100 µM and the TGI (UO-31 renal) was > 100 µM. The TGI (HL-60(TB) leukemia) was > 100 µM, the TGI (UACC-62 melanoma) was > 100 µM and the TGI (SK-MEL-5 melanoma) was > 100 µM. The TGI (A549 NSCLC) was > 100 µM, the TGI (NCI/ADR-RES ovarian) was > 100 µM and the TGI (HCT-116 colon) was > 100 µM. For the same molecule, the TGI (K-562 leukemia) was > 100 µM, the TGI (NCI-H460 lung) was > 100 µM and the TGI (NCI-H23 lung) was > 100 µM. The TGI (RPMI-8226 leukemia) was > 100 µM, the TGI (ACHN renal) was > 100 µM and the TGI (SW-620 colon) was > 100 µM. The TGI (OVCAR-3 ovarian) was > 100 µM, the TGI (HCC-2998 colon) was > 100 µM and the TGI (SK-MEL-2 melanoma) was > 100 µM. The TGI (CAKI-1 renal) was > 100 µM, the TGI (PC-3 prostate) was > 100 µM and the TGI (TK-10 renal) was > 100 µM. The TGI (OVCAR-4 ovarian) was 82.9 µM, the TGI (EKVX NSCLC) was > 100 µM and the TGI (HT29 colon) was > 100 µM. The TGI (OVCAR-5 ovarian) was > 100 µM, the TGI (M14 melanoma) was > 100 µM and the TGI (CCRF-CEM leukemia) was > 100 µM. For the same molecule, the TGI (SF-295 CNS) was > 100 µM, the TGI (SF-268 CNS) was > 100 µM and the TGI (SR leukemia) was > 100 µM. The TGI (MDA-N) was > 100 µM, the TGI (OVCAR-8 ovarian) was > 100 µM and the TGI (MALME-3M melanoma) was > 100 µM. For the same molecule, the TGI (RXF 393 renal) was > 100 µM, the TGI (LOX IMVI melanoma) was > 100 µM and the TGI (SNB-19 CNS) was > 100 µM. For the same molecule, the TGI (KM12 colon) was > 100 µM, the TGI (IGROV1 ovarian) was > 100 µM and the TGI (DU-145 prostate) was > 100 µM. For the same molecule, the TGI (SNB-75 CNS) was > 100 µM, the TGI (HCT-15 colon) was > 100 µM and the TGI (MDA-MB-231 breast) was > 100 µM. For the same molecule, the TGI (COLO 205 colon) was > 100 µM, the TGI (SN12C renal) was > 100 µM and the TGI (A498 renal) was > 100 µM.

For `O=C(Nc1ccccc1Cl)c1cc(S(=O)(=O)Nc2n[nH]c(=O)n2-c2ccccc2)c(S)cc1Cl`, the TGI (NCI-H226 lung) was > 100 µM, the TGI (SK-OV-3 ovarian) was > 100 µM and the TGI (SF-539 CNS) was > 100 µM. The TGI (786-0 renal) was > 100 µM, the TGI (MDA-MB-435) was > 100 µM and the TGI (SK-MEL-28 melanoma) was > 100 µM. For the same molecule, the TGI (HS 578T breast) was > 100 µM, the TGI (UACC-257 melanoma) was > 100 µM and the TGI (MCF7 breast) was > 100 µM. The TGI (HOP-62 NSCLC) was > 100 µM, the TGI (MOLT-4 leukemia) was > 100 µM and the TGI (BT-549 breast) was > 100 µM. The TGI (HOP-92 NSCLC) was > 100 µM, the TGI (T-47D breast) was > 100 µM and the TGI (U251 CNS) was > 100 µM. For the same molecule, the TGI (UO-31 renal) was > 100 µM, the TGI (HL-60(TB) leukemia) was > 100 µM and the TGI (UACC-62 melanoma) was > 100 µM. The TGI (SK-MEL-5 melanoma) was > 100 µM, the TGI (NCI/ADR-RES ovarian) was > 100 µM and the TGI (NCI-H460 lung) was > 100 µM. For the same molecule, the TGI (NCI-H23 lung) was > 100 µM, the TGI (RPMI-8226 leukemia) was > 100 µM and the TGI (SW-620 colon) was > 100 µM. For the same molecule, the TGI (OVCAR-3 ovarian) was > 100 µM, the TGI (HCC-2998 colon) was > 100 µM and the TGI (SK-MEL-2 melanoma) was > 100 µM. For the same molecule, the TGI (CAKI-1 renal) was > 100 µM, the TGI (OVCAR-4 ovarian) was > 100 µM and the TGI (EKVX NSCLC) was > 100 µM. The TGI (HT29 colon) was > 100 µM, the TGI (OVCAR-5 ovarian) was > 100 µM and the TGI (M14 melanoma) was > 100 µM. For the same molecule, the TGI (CCRF-CEM leukemia) was > 100 µM, the TGI (SF-295 CNS) was > 100 µM and the TGI (SF-268 CNS) was > 100 µM. The TGI (SR leukemia) was > 100 µM, the TGI (MDA-N) was > 100 µM and the TGI (OVCAR-8 ovarian) was > 100 µM. The TGI (MALME-3M melanoma) was > 100 µM, the TGI (RXF 393 renal) was > 100 µM and the TGI (LOX IMVI melanoma) was > 100 µM. The TGI (SNB-19 CNS) was > 100 µM, the TGI (KM12 colon) was > 100 µM and the TGI (IGROV1 ovarian) was > 100 µM. For the same molecule, the TGI (DU-145 prostate) was > 100 µM, the TGI (HCT-15 colon) was > 100 µM and the TGI (MDA-MB-231 breast) was > 100 µM. The TGI (COLO 205 colon) was > 100 µM, the TGI (SN12C renal) was > 100 µM and the TGI (A498 renal) was > 100 µM.

With `C=CS(=O)(=O)c1c2cc(OC)ccc2nc2ccc(OC)cc12` the TGI (NCI-H226 lung) was 35.1 µM, the TGI (SK-OV-3 ovarian) was 33.1 µM and the TGI (SF-539 CNS) was > 21.2 µM. It also gave a TGI (NCI-H522 lung) of 3.74 µM, a TGI (786-0 renal) of 7.82 µM and a TGI (MDA-MB-435) of 22.7 µM. It also gave a TGI (SK-MEL-28 melanoma) of 45.6 µM, a TGI (HS 578T breast) of 11.9 µM and a TGI (UACC-257 melanoma) of 24 µM. For the same molecule, the TGI (MCF7 breast) was > 25.7 µM, the TGI (HOP-62 NSCLC) was 32.8 µM and the TGI (MOLT-4 leukemia) was > 100 µM. The TGI (BT-549 breast) was 22.4 µM, the TGI (HOP-92 NSCLC) was > 51.1 µM and the TGI (T-47D breast) was 35.5 µM. The TGI (U251 CNS) was > 52.6 µM, the TGI (UO-31 renal) was > 27.4 µM and the TGI (HL-60(TB) leukemia) was > 100 µM. The TGI (UACC-62 melanoma) was 31.3 µM, the TGI (SK-MEL-5 melanoma) was 27 µM and the TGI (A549 NSCLC) was > 47.1 µM. The TGI (NCI/ADR-RES ovarian) was 76.2 µM, the TGI (HCT-116 colon) was 5.02 µM and the TGI (K-562 leukemia) was > 23.4 µM. For the same molecule, the TGI (NCI-H460 lung) was > 44.3 µM, the TGI (NCI-H23 lung) was 28.2 µM and the TGI (RPMI-8226 leukemia) was 7.28 µM. For the same molecule, the TGI (ACHN renal) was 24.5 µM, the TGI (SW-620 colon) was > 20.7 µM and the TGI (OVCAR-3 ovarian) was 15.8 µM. The TGI (HCC-2998 colon) was 24.8 µM, the TGI (SK-MEL-2 melanoma) was 51.3 µM and the TGI (CAKI-1 renal) was 14.9 µM. The TGI (PC-3 prostate) was 23.3 µM, the TGI (TK-10 renal) was 23.5 µM and the TGI (OVCAR-4 ovarian) was 30 µM. The TGI (EKVX NSCLC) was 21.1 µM, the TGI (HT29 colon) was 10.7 µM and the TGI (OVCAR-5 ovarian) was > 36.9 µM. The TGI (M14 melanoma) was > 49.7 µM, the TGI (CCRF-CEM leukemia) was > 23.4 µM and the TGI (SF-295 CNS) was 32.3 µM. For the same molecule, the TGI (SF-268 CNS) was 33.4 µM, the TGI (MDA-N) was 11.3 µM and the TGI (OVCAR-8 ovarian) was 15.4 µM. For the same molecule, the TGI (MALME-3M melanoma) was 4.89 µM, the TGI (RXF 393 renal) was 18.4 µM and the TGI (LOX IMVI melanoma) was 7.16 µM. The TGI (SNB-19 CNS) was 45.1 µM, the TGI (KM12 colon) was 28.8 µM and the TGI (IGROV1 ovarian) was 12.5 µM. The TGI (DU-145 prostate) was 19.8 µM, the TGI (SNB-75 CNS) was 26.3 µM and the TGI (HCT-15 colon) was > 33.9 µM. The TGI (MDA-MB-231 breast) was 50.7 µM, the TGI (COLO 205 colon) was > 42.3 µM and the TGI (SN12C renal) was 8.21 µM. It also gave a TGI (A498 renal) of 27.7 µM.
